This note sets out measurements from ChEMBL document CHEMBL4330074, “Discovery of potent azaindazole leucine-rich repeat kinase 2 (LRRK2) inhibitors possessing a key intramolecular hydrogen bond - Part 2” (Bioorg Med Chem Lett, 2019).

Molecules are shown by their SMILES.

The inhibition is the share of the control response that was lost under treatment. What is called clearance is a measure of how efficiently the substance is removed, as volume per time. A high value points to a high capacity for elimination. As usually defined, the Ki is the equilibrium dissociation constant of an inhibitor or competing ligand from its target. For orientation: efflux ratio means the permeability from basolateral to apical divided by that in the opposite direction, in the common usage. For orientation: IC50 means the concentration at which inhibition is half-maximal. The low end stands for greater potency, the high end for weaker potency. In general, bioavailability refers to dose-corrected exposure relative to a reference, in per cent.

In data set [1] the target is T1, Dual specificity protein kinase TTK (Homo sapiens) (UniProt P33981).
T1 sequence (whole entry): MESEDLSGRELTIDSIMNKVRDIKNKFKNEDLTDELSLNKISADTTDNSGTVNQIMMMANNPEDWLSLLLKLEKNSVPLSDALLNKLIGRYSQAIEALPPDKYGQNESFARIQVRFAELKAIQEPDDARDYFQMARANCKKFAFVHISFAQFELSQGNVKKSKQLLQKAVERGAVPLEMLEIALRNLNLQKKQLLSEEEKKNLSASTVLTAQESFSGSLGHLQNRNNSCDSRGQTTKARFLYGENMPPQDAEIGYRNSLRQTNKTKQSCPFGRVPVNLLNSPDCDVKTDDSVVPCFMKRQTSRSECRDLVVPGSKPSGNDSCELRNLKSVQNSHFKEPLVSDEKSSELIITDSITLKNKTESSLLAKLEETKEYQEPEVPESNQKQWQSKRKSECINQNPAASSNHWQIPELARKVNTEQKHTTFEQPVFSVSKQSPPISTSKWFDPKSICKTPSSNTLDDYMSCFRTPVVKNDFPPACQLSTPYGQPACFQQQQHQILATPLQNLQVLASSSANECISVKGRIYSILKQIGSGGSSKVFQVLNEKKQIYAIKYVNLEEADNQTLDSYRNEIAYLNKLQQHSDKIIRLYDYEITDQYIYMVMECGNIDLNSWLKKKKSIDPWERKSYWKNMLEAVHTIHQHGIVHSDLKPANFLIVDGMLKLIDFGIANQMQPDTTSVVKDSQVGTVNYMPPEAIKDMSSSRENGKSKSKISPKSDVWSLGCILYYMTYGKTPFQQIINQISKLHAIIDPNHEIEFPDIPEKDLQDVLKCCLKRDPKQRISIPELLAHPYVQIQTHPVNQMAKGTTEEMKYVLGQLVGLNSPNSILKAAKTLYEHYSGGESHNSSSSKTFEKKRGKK
As to the kind of experiment: Inhibition of TTK (unknown origin) at 1 uM relative to control.

Data set [2] is filed under the species Homo sapiens. As to the kind of experiment: Selectivity ratio of Ki for JAK2 (unknown origin) to Ki for recombinant human GST-tagged LRRK2 G2019S mutant catalytic domain (970 to 2527 residues) expressed in insect cells.
Data set [3] in a line: Clearance in rat at 0.5 to 1 mg/kg, iv. It counts as ADME, organism-based. The note with it: in vivo.
The target in data set [4] is T2, Leucine-rich repeat serine/threonine-protein kinase 2 (Homo sapiens, UniProt Q5S007, G2019S). Nature of the data set: Inhibition of recombinant human GST-tagged LRRK2 G2019S mutant catalytic domain (970 to 2527 residues) expressed in insect cells using RtGWWRFYTLRRARQGNTKQR as substrate measured after 180 mins in presence of [gamma33P]ATP by topcount method.
T2 sequence (Q5S007 whole entry G2019S, the tested form may be a part): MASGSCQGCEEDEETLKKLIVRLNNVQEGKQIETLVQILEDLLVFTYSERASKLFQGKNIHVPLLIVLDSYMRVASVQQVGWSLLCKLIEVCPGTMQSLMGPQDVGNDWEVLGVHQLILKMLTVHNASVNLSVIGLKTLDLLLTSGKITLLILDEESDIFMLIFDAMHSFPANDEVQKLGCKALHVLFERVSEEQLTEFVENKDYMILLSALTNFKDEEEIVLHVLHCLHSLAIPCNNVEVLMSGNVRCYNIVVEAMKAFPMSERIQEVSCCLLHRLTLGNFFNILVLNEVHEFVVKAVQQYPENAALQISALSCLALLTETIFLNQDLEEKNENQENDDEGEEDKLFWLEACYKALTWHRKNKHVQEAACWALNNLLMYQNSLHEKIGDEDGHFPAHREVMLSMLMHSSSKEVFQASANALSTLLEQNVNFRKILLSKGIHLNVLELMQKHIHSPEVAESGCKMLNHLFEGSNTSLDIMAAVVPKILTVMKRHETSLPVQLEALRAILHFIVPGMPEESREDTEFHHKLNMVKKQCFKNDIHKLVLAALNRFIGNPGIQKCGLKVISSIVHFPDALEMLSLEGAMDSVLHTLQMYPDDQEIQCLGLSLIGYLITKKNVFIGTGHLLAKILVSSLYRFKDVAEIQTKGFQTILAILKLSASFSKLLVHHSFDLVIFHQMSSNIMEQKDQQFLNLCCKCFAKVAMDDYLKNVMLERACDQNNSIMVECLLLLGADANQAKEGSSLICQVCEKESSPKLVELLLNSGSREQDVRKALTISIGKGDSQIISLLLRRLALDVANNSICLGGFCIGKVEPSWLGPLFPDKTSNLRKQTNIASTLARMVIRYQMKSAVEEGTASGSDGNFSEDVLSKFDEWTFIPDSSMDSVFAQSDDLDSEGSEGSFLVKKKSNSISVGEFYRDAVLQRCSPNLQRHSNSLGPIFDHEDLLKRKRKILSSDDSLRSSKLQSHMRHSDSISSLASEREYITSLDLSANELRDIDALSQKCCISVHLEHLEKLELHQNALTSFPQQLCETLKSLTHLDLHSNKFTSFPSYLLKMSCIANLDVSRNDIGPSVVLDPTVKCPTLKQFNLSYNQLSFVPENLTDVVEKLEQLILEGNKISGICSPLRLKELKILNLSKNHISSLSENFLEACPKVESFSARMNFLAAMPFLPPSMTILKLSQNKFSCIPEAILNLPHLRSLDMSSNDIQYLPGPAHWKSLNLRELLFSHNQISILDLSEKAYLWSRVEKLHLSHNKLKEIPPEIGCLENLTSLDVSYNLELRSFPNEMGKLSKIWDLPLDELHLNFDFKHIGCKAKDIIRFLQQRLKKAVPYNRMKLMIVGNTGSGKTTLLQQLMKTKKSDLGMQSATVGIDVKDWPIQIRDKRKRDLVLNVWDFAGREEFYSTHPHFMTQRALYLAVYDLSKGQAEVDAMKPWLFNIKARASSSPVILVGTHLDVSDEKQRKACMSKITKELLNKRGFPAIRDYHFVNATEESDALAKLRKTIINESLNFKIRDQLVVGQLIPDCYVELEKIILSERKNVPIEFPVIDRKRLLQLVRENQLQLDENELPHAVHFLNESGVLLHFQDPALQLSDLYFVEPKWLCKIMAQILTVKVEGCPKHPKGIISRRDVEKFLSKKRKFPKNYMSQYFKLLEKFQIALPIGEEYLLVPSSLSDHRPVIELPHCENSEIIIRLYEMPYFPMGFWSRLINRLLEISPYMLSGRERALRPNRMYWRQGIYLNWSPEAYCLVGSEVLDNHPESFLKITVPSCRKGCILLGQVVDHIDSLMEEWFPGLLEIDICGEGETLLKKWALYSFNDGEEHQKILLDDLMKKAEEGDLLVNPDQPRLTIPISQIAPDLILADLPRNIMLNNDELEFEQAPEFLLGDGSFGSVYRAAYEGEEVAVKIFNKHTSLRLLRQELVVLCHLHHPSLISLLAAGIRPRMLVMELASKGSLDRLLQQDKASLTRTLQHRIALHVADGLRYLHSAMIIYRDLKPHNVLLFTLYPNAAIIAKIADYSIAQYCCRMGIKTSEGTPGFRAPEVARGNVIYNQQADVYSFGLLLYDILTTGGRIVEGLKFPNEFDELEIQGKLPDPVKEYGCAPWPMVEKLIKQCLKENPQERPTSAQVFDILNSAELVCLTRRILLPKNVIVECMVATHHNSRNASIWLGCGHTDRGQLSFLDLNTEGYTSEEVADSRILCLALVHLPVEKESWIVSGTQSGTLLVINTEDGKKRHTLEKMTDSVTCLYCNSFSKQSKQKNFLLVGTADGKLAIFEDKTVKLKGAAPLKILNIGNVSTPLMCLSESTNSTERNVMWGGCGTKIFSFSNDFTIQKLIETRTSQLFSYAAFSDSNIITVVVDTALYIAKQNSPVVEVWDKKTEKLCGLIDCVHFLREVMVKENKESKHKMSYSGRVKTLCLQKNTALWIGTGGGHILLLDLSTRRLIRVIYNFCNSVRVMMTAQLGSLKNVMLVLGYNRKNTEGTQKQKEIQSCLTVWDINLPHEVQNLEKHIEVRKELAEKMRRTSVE
Data set [5] concerns P-gp (human MDR1). As to the kind of experiment: Efflux ratio of permeability from basolateral to apical side over apical to basolateral side in MDCK-MDR1 cells harboring human P-gp at 5 uM. It counts as ADME, cell-based, Canis lupus familiaris. Conditions: dog.
The target in data set [6] is Maternal embryonic leucine zipper kinase (Homo sapiens) (UniProt Q14680). As to the kind of experiment: Inhibition of MELK (unknown origin) at 1 uM relative to control.
Sequence of Maternal embryonic leucine zipper kinase (Homo sapiens) (Q14680 whole entry, looked up): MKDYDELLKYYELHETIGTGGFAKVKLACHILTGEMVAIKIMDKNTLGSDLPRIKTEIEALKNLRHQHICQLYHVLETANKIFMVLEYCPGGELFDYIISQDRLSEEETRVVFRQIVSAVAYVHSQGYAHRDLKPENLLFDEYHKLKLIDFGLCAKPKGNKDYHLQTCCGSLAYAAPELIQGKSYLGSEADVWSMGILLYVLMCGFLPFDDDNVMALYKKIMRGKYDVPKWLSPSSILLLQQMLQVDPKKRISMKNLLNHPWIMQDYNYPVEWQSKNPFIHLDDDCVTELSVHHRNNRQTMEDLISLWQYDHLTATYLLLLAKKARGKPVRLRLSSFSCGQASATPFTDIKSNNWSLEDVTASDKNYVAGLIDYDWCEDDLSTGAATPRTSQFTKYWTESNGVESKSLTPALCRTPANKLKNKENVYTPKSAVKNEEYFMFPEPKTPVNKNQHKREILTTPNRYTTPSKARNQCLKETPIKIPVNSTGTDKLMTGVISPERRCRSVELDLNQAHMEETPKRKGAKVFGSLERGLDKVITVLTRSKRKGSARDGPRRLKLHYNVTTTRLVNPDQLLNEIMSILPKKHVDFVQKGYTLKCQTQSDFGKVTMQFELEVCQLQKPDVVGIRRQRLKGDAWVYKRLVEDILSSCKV
Data set [7] has as its target T2, Leucine-rich repeat serine/threonine-protein kinase 2. Nature of the data set: Inhibition of LRRK2 G2019S mutant (unknown origin) by cell based assay.
Data set [8] is described as follows: Clearance in rat at 0.5 mg/kg, iv. It is filed as ADME, organism-based. The note with it: in vivo.
A short description of data set [9]: Oral bioavailability in rat at 1 mg/kg. It is filed as ADME, organism-based. Conditions: in vivo.
For data set [10], the target named is TAK1/TAB1 (Homo sapiens) (UniProt Q15750+O43318). As to the kind of experiment: Inhibition of TAK1/TAB1 (unknown origin) at 1 uM relative to control. It counts as protein-complex assay.
A short description of data set [11]: Ratio of fAUC in rat brain to plasma at 0.5 mg/kg, iv. It counts as ADME, organism-based. The note with it: brain and plasma.
Data set [12] is described as follows: Ratio of AUC in rat brain to plasma at 0.5 mg/kg, iv. It is filed as ADME, organism-based. Conditions: brain and plasma, read-out: Ratio AUC.
Data set [13] addresses Serine/threonine-protein kinase 26 (Homo sapiens) (UniProt Q9P289). Nature of the data set: Inhibition of MST4 (unknown origin) at 1 uM relative to control.

Sequence of Serine/threonine-protein kinase 26 (Homo sapiens) (Q9P289 2-416 limits assumed): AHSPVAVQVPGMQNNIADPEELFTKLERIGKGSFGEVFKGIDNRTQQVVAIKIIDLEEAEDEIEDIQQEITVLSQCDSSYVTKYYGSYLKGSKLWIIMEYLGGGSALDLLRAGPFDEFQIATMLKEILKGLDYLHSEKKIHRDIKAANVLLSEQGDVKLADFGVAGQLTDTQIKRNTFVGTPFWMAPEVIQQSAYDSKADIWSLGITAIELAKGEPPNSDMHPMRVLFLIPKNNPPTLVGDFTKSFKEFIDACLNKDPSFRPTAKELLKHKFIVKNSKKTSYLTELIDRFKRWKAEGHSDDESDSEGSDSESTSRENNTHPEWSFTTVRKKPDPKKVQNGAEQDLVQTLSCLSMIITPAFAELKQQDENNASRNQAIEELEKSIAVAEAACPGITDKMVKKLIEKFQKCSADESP

For `c1cc(-c2n[nH]c3ccnc(OC4CCOCC4)c23)cc(N2CCOCC2)n1`, the inhibition in data set [1] is 86%; in [6], 60%. For the same molecule, the Ratio Ki in [2] turned out to be 882. Moreover, in [3], the clearance came to 69 mL/min/kg. Also, the Ki in data set [4] is 4.2 nM. Further, the efflux ratio at 5 µM in data set [5] came out at 3.4. This molecule gave an IC50 in [7] of 24 nM.
As to `CC(C)c1n[nH]c(-c2n[nH]c3ccnc(OC4CCOCC4)c23)n1`, the Ki in data set [4] was determined as 4600 nM.
For the molecule `c1cc(-c2n[nH]c3ccnc(OC4CCOCC4)c23)[nH]n1`, the Ki in [4] came out at 44 nM.
Take `Cc1[nH]nc2ccnc(NC3CCOCC3)c12`: the Ratio Ki in data set [2] stood at 20.
Regarding `Cc1n[nH]c2ccnc(OC3CCOCC3)c12`, in data set [2], the Ratio Ki is 20. This molecule returned a clearance in [3] of 34 mL/min/kg. Further, the Ki in data set [4] was 44 nM. The efflux ratio at 5 µM in data set [5] stood at 0.9. The molecule also yielded an IC50 in data set [7] of 301 nM.
In [8], `CC(C)c1nc(-c2n[nH]c3ccnc(NC4CCOCC4)c23)n[nH]1` returned a clearance of 35 mL/min/kg. In addition, the Ki in data set [4] turned out to be 7.8 nM. Further, in data set [5], the efflux ratio at 5 µM stood at 21. The molecule further came in with an IC50 in data set [7] of 35 nM.
Molecule `FC(F)(F)c1cc(-c2n[nH]c3ccnc(NC4CCOCC4)c23)ncn1` had a bioavailability in data set [9] of 62%. The same molecule displayed a clearance in [8] of 18 mL/min/kg. The inhibition amounted to 51% in [10], 52% in data set [1] and 59% in [13]. Moreover, the Ratio Ki in data set [2] came to 1000. The Kp uu in data set [11] came to 0.22. The Ki in data set [4] was determined as 4.1 nM. Moreover, the Kp in data set [12] turned out to be 1. Also, the efflux ratio at 5 µM in data set [5] came out at 1.4. Further, in [7], the IC50 amounted to 24 nM.
In the case of `CCc1cc(-c2n[nH]c3ccnc(NC4CCOCC4)c23)nn1C`, the Ki in data set [4] was 0.5 nM. Besides, the efflux ratio at 5 µM in data set [5] amounted to 10. The molecule also yielded an IC50 in data set [7] of 4.5 nM.
Regarding `CC(C)Nc1nccc2[nH]nc(-c3nnc(C4CC4)n3C)c12`, the Ki in data set [4] worked out at 151 nM.
In the case of `c1cc(-c2n[nH]c3ccnc(NC4CCOCC4)c23)cc(N2CCOCC2)n1`, the clearance in [3] was 117 mL/min/kg. The efflux ratio at 5 µM in [5] worked out at 1.5. In data set [7], this molecule had an IC50 of 135 nM.
Turning to `CCc1cc(-c2n[nH]c3ccnc(NC(C)C)c23)nn1C`, the Ki in data set [4] was 3.5 nM. In addition, the efflux ratio at 5 µM in [5] was 4.
Take `CCc1cc(-c2n[nH]c3ccnc(NC4CCOCC4)c23)n(C)n1`: the Ki in data set [4] stood at 3900 nM. The efflux ratio at 5 µM in data set [5] was determined as 11.
With `c1cc(-c2n[nH]c3ccnc(OC4CCOCC4)c23)nc(N2CCOCC2)c1`, the Ki in [4] came to 147 nM.
In turn, `c1ccc(-c2n[nH]c3ccnc(NC4CCOCC4)c23)nc1` came in with a clearance in [8] of 22 mL/min/kg. Also, the Ki in data set [4] worked out at 3.1 nM. Further, the efflux ratio at 5 µM in data set [5] is 3.6. The same molecule came in with an IC50 in [7] of 41 nM.
As to `CC(C)n1cc(-c2n[nH]c3ccnc(NC4CCOCC4)c23)nn1`, the Ki in data set [4] was found to be 1.2 nM. For the same molecule, the efflux ratio at 5 µM in data set [5] is 23. For the same molecule, it took 49 nM to reach half-maximal inhibition in data set [7] (IC50).
With `CC(C)(O)Cn1cc(-c2n[nH]c3ccnc(OC4CCOCC4)c23)cn1`, the clearance in data set [8] amounted to 30 mL/min/kg. Besides, in data set [4], the Ki came out at 21 nM. For the same molecule, in data set [5], the efflux ratio at 5 µM worked out at 80. In addition, in data set [7], 13 nM corresponded to half-maximal inhibition (IC50).
The molecule `Cc1n[nH]c2ccnc(NC3CCOCC3)c12` gave a clearance in data set [3] of 25 mL/min/kg. Moreover, the Ki in data set [4] amounted to 182 nM. The efflux ratio at 5 µM in [5] was determined as 1.1. The molecule also showed an IC50 in data set [7] of 426 nM.
